{"source": "patent US20190069553A1", "about": "“METHOD FOR CONTROLLING PPO RESISTANT WEEDS” (BASF SE, priority 2016, published 2019)", "type_in_all_cases": "in vivo", "key": {"[1]": {"system": "Amaranthus tamariscinus (common waterhemp, AMATA), sensitive biotype (w.10)", "assay": "Greenhouse herbicidal activity test, third experiment, weed w.10", "settings": "scale 0 to 100"}, "[2]": {"system": "Amaranthus tamariscinus (common waterhemp, AMATA), PPO resistant biotype 7 (w.11)", "assay": "Greenhouse herbicidal activity test, third experiment, weed w.11", "settings": "use rate 4 g/ha; PPO resistant biotype 7 common waterhemp; scale 0 to 100"}, "[3]": {"system": "Amaranthus tamariscinus (common waterhemp, AMATA), PPO resistant biotype 8 (w.12)", "assay": "Greenhouse herbicidal activity test, third experiment, weed w.12", "settings": "use rate 4 g/ha; PPO resistant biotype 8 common waterhemp; scale 0 to 100"}, "[4]": {"system": "Amaranthus tamariscinus (common waterhemp, AMATA), sensitive biotype (w.1)", "settings": "scale 0 to 100"}, "[5]": {"system": "Ambrosia elatior (common ragweed, AMBEL), sensitive biotype (w.4)", "settings": "scale 0 to 100"}, "[6]": {"system": "Amaranthus tuberculatus (tall waterhemp, AMATU), sensitive biotype (w.7)", "assay": "Greenhouse herbicidal activity test, another (second) experiment, weed w.7", "settings": "scale 0 to 100"}}, "note": "Like-named read-outs stand apart in the source and are kept apart here."}
{"smiles": "C#CCOc1cc(-n2nc3n(c2=O)CCCC3)c(Cl)cc1Cl", "note": "[azafenidin, reference compound]", "values": [{"measurement": "Weed control (%) w.10", "setting": "[1]; use rate 2 g/ha", "value": 95, "unit": "%"}, {"measurement": "Weed control (%) w.10", "setting": "[1]; use rate 4 g/ha", "value": 98, "unit": "%"}, {"measurement": "Weed control (%) w.11", "setting": "[2]", "value": 73, "unit": "%"}, {"measurement": "Weed control (%) w.12", "setting": "[3]", "value": 72, "unit": "%"}]}
{"smiles": "CCOC(=O)COc1ncccc1Oc1cc(-n2c(=O)cc(C(F)(F)F)n(C)c2=O)c(F)cc1Cl", "note": "[compound (I).1, ethyl [3-[2-chloro-4-fluoro-5-(1-methyl-6-trifluoromethyl-2,4-dioxo-1,2,3,4-tetrahydropyrimidin-3-yl)phenoxy]-2-pyridyloxy]acetate]", "values": [{"measurement": "Weed control (%) w.1", "setting": "[4]; use rate 1 g/ha", "value": 100, "unit": "%"}, {"measurement": "Weed control (%) w.1", "setting": "[4]; use rate 2 g/ha", "value": 100, "unit": "%"}, {"measurement": "Weed control (%) w.4", "setting": "[5]; use rate 1 g/ha", "value": 100, "unit": "%"}, {"measurement": "Weed control (%) w.4", "setting": "[5]; use rate 2 g/ha", "value": 100, "unit": "%"}, {"measurement": "Weed control (%) 7", "setting": "[6]; use rate 1 g/ha", "value": 100, "unit": "%"}, {"measurement": "Weed control (%) 7", "setting": "[6]; use rate 2 g/ha", "value": 100, "unit": "%"}]}
{"smiles": "CCOC(=O)COc1ccccc1Oc1cc(-n2c(=O)cc(C(F)(F)F)n(C)c2=O)c(F)cc1Cl", "note": "[compound (I).4]", "values": [{"measurement": "Weed control (%) w.10", "setting": "[1]; use rate 2 g/ha", "value": 100, "unit": "%"}, {"measurement": "Weed control (%) w.10", "setting": "[1]; use rate 4 g/ha", "value": 100, "unit": "%"}, {"measurement": "Weed control (%) w.11", "setting": "[2]", "value": 100, "unit": "%"}, {"measurement": "Weed control (%) w.12", "setting": "[3]", "value": 99, "unit": "%"}]}
{"smiles": "C#CCN1C(=O)COc2cc(F)c(N3C(=O)C4=C(CCCC4)C3=O)cc21", "note": "[flumioxazin, reference compound]", "values": [{"measurement": "Weed control (%) w.1", "setting": "[4]; use rate 1 g/ha", "value": 90, "unit": "%"}, {"measurement": "Weed control (%) w.1", "setting": "[4]; use rate 2 g/ha", "value": 95, "unit": "%"}, {"measurement": "Weed control (%) w.4", "setting": "[5]; use rate 1 g/ha", "value": 50, "unit": "%"}, {"measurement": "Weed control (%) w.4", "setting": "[5]; use rate 2 g/ha", "value": 65, "unit": "%"}]}
